The results in this text go back to US11040981B2, “Pyrrolotriazine compounds and methods of inhibiting TAM kinases” (Syros Pharmaceuticals, Inc., priority 2017, dated 2021).

The target of one assay is T1, TYRO3 (Homo sapiens, UniProt Q06418).
T1 sequence (Q06418 41-890): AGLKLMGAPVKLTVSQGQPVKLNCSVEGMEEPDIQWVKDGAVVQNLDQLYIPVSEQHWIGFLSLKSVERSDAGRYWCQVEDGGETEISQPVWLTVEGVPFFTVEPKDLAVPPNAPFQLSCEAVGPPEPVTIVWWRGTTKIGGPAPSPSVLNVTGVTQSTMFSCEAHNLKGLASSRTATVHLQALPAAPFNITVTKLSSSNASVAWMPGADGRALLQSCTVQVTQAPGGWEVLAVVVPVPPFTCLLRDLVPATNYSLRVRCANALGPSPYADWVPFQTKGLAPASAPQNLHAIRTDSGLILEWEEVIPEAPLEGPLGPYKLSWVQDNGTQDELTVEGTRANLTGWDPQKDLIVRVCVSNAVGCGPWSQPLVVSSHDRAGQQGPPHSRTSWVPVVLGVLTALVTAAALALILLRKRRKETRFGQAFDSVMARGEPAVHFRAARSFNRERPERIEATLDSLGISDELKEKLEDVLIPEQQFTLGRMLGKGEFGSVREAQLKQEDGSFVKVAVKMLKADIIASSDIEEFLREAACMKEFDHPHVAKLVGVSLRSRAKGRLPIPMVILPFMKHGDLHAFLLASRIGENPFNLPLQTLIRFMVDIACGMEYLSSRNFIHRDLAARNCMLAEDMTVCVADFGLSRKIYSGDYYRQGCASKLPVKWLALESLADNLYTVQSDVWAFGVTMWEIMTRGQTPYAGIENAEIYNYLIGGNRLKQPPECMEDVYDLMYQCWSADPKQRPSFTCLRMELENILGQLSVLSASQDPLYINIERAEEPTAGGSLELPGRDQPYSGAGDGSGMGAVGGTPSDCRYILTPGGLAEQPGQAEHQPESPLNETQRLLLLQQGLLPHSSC
Nature of the assay: TR-FRET kinase activity assay, TYRO3. Type of assay: biochemical. The following applies: ATP at Km, 60 minutes. Here is the method: (§1) IC50 values for compound inhibition of AXL, FLT3, MERTK and TYRO3 activity were determined by using a TR-FRET activity assay. A polypeptide substrate with a fluorescent label is phosphorylated on a tyrosine by each enzyme, where the now phosphorylated product is bound by a Europium-labeled antibody specific to that phosphorylation site. The proximity between the antibody and the substrate gives a signal known as TR-FRET. As the enzyme is inhibited by compound, less phosphorylated peptide product is made causing a decrease in overall signal.
(§2) Activity assays were performed in a 384-well, small volume, black microplates in an active enzyme volume of 10 μL and final developed volume of 20 μL. Final assay conditions are 50 mM HEPES pH 7.5, 10 mM MgCl2, 1 mM EGTA, 0.01% Brij 35 and 1 mM DTT all at RT. Enzyme, substrate labeled peptide and compound are mixed, and then the reaction is initiated with the addition of ATP at Km concentration for each enzyme. The reaction is allowed to run 60 minutes and then quenched with a 12.5 mM EDTA (ethylenediamine tetraacetic acid) solution. The plate is then developed with the addition of Europium labeled antibody for a final volume of 20 μL and is then incubated for 30 minutes in darkness. Plates are read in a Pherastar plate reader. Data is analyzed in GraphPad PRISM.
(§3) The results of these assays are shown in Table 1, below, wherein “No.” designates compound number (FIG. 1); “A” represents a value of ≤100 nM; “B” a value of >100 nM and ≤1 μM; “C” a value of >1 μM and ≤10 μM; “D” a value of >10 μM; “ND” is not determined. The ratio of Mer to FLT3 is calculated as follows: FLT3 IC50/Mer IC50. “+” represents a ratio of >2.0 and <10; “++” represents a ratio of between 10 and 100; and “+++” represents a ratio of >100.

Another assay addresses T2, AXL (Homo sapiens, UniProt P30530).
T2 sequence (P30530 26-894): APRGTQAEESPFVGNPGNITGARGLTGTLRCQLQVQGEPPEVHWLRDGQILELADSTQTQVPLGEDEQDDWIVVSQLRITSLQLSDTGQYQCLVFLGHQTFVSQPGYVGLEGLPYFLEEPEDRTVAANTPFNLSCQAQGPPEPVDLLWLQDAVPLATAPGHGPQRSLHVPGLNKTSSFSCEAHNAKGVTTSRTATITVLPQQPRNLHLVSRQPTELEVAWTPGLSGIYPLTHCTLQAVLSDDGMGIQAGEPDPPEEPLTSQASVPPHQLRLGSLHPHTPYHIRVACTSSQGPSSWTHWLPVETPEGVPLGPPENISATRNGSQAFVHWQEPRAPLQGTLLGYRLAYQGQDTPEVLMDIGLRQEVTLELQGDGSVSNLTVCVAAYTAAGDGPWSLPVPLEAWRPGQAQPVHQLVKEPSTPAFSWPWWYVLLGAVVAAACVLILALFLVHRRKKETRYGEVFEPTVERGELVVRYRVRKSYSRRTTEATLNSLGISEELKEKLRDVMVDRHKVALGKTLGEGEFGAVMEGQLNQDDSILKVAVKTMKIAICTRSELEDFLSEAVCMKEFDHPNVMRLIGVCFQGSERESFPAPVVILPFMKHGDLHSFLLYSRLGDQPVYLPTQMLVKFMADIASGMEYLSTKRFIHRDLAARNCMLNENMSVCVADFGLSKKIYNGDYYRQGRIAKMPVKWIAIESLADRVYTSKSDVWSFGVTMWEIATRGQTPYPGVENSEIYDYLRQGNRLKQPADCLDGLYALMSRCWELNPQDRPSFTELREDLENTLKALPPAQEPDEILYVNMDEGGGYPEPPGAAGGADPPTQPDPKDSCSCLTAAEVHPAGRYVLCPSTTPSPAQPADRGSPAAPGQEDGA
Nature of the assay: TR-FRET kinase activity assay, AXL. Type of assay: biochemical. As to conditions: ATP at Km, 60 minutes. As to the method:
as §1, §2, §3
On the technique in general: TR-FRET usually uses a lanthanide donor and a delayed reading to cut background.

The IC50 is the concentration at which inhibition is half-maximal. `COC[C@H](C)Nc1ncc2c(-c3ccc(C(=O)N4CCS(=O)(=O)CC4)cc3)cc([C@H]3CC[C@H](O)CC3)n2n1` [Compound 197]: the IC50 at TYRO3 and against AXL was at most 100 nM throughout.

Turning to `COC[C@H](C)Nc1ncc2c(-c3cnc(C)o3)cc([C@H]3CC[C@H](O)CC3)n2n1` [Compound 261], the IC50 on TYRO3 is at most 100 nM; against AXL it was 100 to 1000 nM.

With `COC[C@H](C)Nc1ncc2c(-c3cnn(CC(=O)N(C)C)c3)cc([C@H]3CC[C@H](O)CC3)n2n1` [Compound 238], the IC50 at TYRO3 was at most 100 nM; on AXL it was 100 to 1000 nM.

Turning to `COCC(C)Nc1ncc2c(-c3ccc(-c4nnc(C)o4)cc3)cc(C3CCC(O)CC3)n2n1` (stereo not shown) [Compound 198], the IC50 on TYRO3 is at most 100 nM; at AXL, 100 to 1000 nM.

Turning to `CNC(=O)c1ccc(-c2cc([C@H]3CC[C@H](O)CC3)n3nc(N[C@@H](C)CC(F)(F)F)ncc23)cn1` [Compound 263], the IC50 at TYRO3 and against AXL was at most 100 nM in each case.

For `COC[C@H](C)Nc1ncc2c(-c3cncc(C(N)=O)c3)cc([C@H]3CC[C@H](O)CC3)n2n1` [Compound 247], the IC50 was at most 100 nM against TYRO3 and 100 to 1000 nM at AXL.

With `COC[C@H](C)Nc1ncc2c(-c3ccnc(N4CCN(C)CC4)c3)cc([C@H]3CC[C@H](O)CC3)n2n1` [Compound 256], the IC50 against TYRO3 and at AXL was at most 100 nM each time.

On to `COC[C@H](C)Nc1ncc2c(-c3ccc4c(c3)NC(=O)C4)cc([C@H]3CC[C@H](O)CC3)n2n1` [Compound 249], for which the IC50 at TYRO3 and against AXL was at most 100 nM in each case.

Turning to `COC[C@H](C)Nc1ncc2c(-c3cnn(CC(C)(C)O)c3)cc([C@H]3CC[C@H](O)CC3)n2n1` [Compound 264], the IC50 against TYRO3 and against AXL was at most 100 nM throughout.

On to `CCCCC[C@H](C)Nc1ncc2c(-c3ccc(CN4CCN(C)CC4)cc3)cc([C@H]3CC[C@@H](O)CC3)n2n1` [Compound 105], for which the IC50 is at most 100 nM against TYRO3 and 100 to 1000 nM against AXL.

As for `CCCCC[C@H](C)Nc1ncc2c([C@H]3CC[C@H](C(=O)N4CCOCC4)CC3)cc([C@H]3CC[C@H](O)CC3)n2n1` [Compound 108], the IC50 against TYRO3 and on AXL was 100 to 1000 nM in each case.

As for `COC[C@H](C)Nc1ncc2c(-c3cncc(CN4CCOCC4)c3)cc([C@H]3CC[C@H](O)CC3)n2n1` [Compound 219], the IC50 at TYRO3 was at most 100 nM; on AXL, 100 to 1000 nM.

Take `CC(CCOC(F)F)Nc1ncc2c(-c3ccc(CN4CCOCC4)cc3)cc(C3CCC(O)CC3)n2n1` (stereo not shown) [Compound 255]: the IC50 against TYRO3 and on AXL was at most 100 nM throughout.

In the case of `COC[C@H](C)Nc1ncc2c(-c3cncc(C(=O)N4CCN(C)CC4)c3)cc([C@H]3CC[C@H](O)CC3)n2n1` [Compound 234], the figures for the IC50 at TYRO3 and at AXL were at most 100 nM and 100 to 1000 nM, respectively.

Take `Cc1cc(-c2cc([C@H]3CC[C@H](O)CC3)n3nc(N[C@@H](C)COC(C)C)ncc23)ccn1` [Compound 215]: the IC50 is at most 100 nM against TYRO3 and 100 to 1000 nM at AXL.

Consider `C[C@@H](CC(F)(F)F)Nc1ncc2c(-c3cnn(C4COC4)c3)cc([C@H]3CC[C@H](O)CC3)n2n1` [Compound 269], for which the IC50 on TYRO3 and against AXL was at most 100 nM throughout.

As to `Cc1cc(-c2cc([C@H]3CC[C@H](O)CC3)n3nc(N[C@@H](C)CC(F)(F)F)ncc23)ccn1` [Compound 213], the IC50 against TYRO3 and at AXL was at most 100 nM throughout.

Consider `COC[C@H](C)Nc1ncc2c(-c3cnnc(C)c3)cc([C@H]3CC[C@H](O)CC3)n2n1` [Compound 267], for which the results for the IC50 against TYRO3 and on AXL were at most 100 nM and 100 to 1000 nM, respectively.

With `COC[C@H](C)Nc1ncc2c(-c3cnn(CCC#N)c3)cc([C@H]3CC[C@H](O)CC3)n2n1` [Compound 222], the IC50 on TYRO3 and against AXL was at most 100 nM throughout.

As for `CCCCC[C@H](C)Nc1ncc2c(NC3CCN(C)CC3)cc([C@H]3CC[C@H](O)CC3)n2n1` [Compound 107], the IC50 on TYRO3 and on AXL was at most 100 nM each time.
